Source: US12023315B2, “Pharmaceutical compositions and methods utilizing neostigmine and an NK-1 antagonist for treating myasthenia gravis” (priority 2017, dated 2024)

Tested on: gastro-intestinal side effects of neostigmine in human subjects
Assay: Phase I single-blind, placebo-controlled study: single oral neostigmine bromide with or without single oral aprepitant
Format: in vivo
Conditions: human volunteers; single oral aprepitant (up to 125 mg) co-administered with first intolerable oral dose (FID) of neostigmine bromide; follow-up up to 8 hours
Protocol: The ability of the NK1-antagonists for preventing the adverse effects of orally administered neostigmine bromide in humans is tested.
A Phase I study is conducted in human subjects receiving a single oral dose of neostigmine bromide with or without a single oral dose of aprepitant hydrochloride dihydrate, as a representative NK1-antagonist. The study is a single center, single-blind, placebo-controlled study.
To be enrolled in the study, participants are to meet the following inclusion/exclusion criteria:
Key Inclusion Criteria • 1. Male or female volunteers between the ages of 18 and 60 years inclusive are required to be in good health, to refrain from consuming xanthine, quinine and caffeine containing beverages, and to refrain from prolonged intensive physical exercise during the study conduct. • 2. […] Subjects had to be in good health according to their medical history including personal and family psychiatric history, physical examination, ECG, vital signs, and laboratory tests. […] Subjects had to be able to swallow multiple pills simultaneously.
Key Exclusion Criteria • 1. Any clinically relevant acute or chronic disease which could interfere with the subjects' safety during the trial, expose them to undue risk, or interfere with the study objectives. • 2. […]

C[C@@H](O[C@H]1OCCN(Cc2nc(=O)[nH][nH]2)[C@H]1c1ccc(F)cc1)c1cc(C(F)(F)F)cc(C(F)(F)F)c1 [aprepitant, 5-[[(2R,3S)-2-[(1R)-1-[3,5-bis(trifluoromethyl)phenyl]ethoxy]-3-(4-fluorophenyl)-4-morpholinyl]methyl]-1,2-dihydro-3H-1,2,4-triazol-3-one]
occurrence of gastro-intestinal AEs with neostigmine: prevents or attenuates the occurrence of gastro-intestinal AEs
